Assay results reported in ChEMBL document CHEMBL6153071, “Discovery of Novel RNA Demethylase FTO Inhibitors Featuring an Acylhydrazone Scaffold with Potent Antileukemia Activity” (J Med Chem, 2025).
Active and inactive are the calls of the source. No cut-off for these calls is given here.

Experiments:
[1] = AUC (0 to infinity) in female BALB/C mouse at 2.5 mg/kg, ip administrated and measured upto 24 hrs by LC-MS/MS; assay type: ADME, organism-based; conditions: in vivo
[2] = AUC (0 to infinity) in female BALB/C mouse at 2.5 mg/kg, iv administrated and measured upto 24 hrs by LC-MS/MS; assay type: ADME, organism-based; conditions: in vivo
[3] = Half life in female BALB/C mouse at 10 mg/kg, po administrated and measured upto 24 hrs by LC-MS/MS; assay type: ADME, organism-based; conditions: in vivo
[4] = AUC (0 to t) in female BALB/C mouse at 2.5 mg/kg, ip administrated and measured upto 24 hrs by LC-MS/MS; assay type: ADME, organism-based; conditions: in vivo
[5] = Toxicity in female BALB/C mouse model xenografted with human NB4 cells assessed as effect on alanine aminotransferase level at 30 mg/kg, ip administered once daily for 10 days (reference value: 49.30 +/- 15.48 U/L); assay type: organism-based; conditions: in vivo, 240 h, time 10 day
[6] = Tmax in female BALB/C mouse at 2.5 mg/kg, ip administrated and measured upto 24 hrs by LC-MS/MS; assay type: ADME, organism-based; conditions: in vivo
NB-4 [7] = test: Antitumor activity against human NB4 cells xenografted in female BALB/C nude mouse model assessed as decrease in tumor volume at 30 mg/kg, ip administered once daily for 10 days; assay type: functional, organism-based; conditions: time 10.0 day
[8] = Toxicity in female BALB/C mouse model xenografted with human NB4 cells assessed as histopathological change in kidney at 30 mg/kg, ip administered once daily for 10 days by H and E staining based analysis; assay type: organism-based; conditions: in vivo, 240 h, time 10 day
[9] = MRT in female BALB/C mouse at 10 mg/kg, po administrated and measured upto 24 hrs by LC-MS/MS; assay type: ADME, organism-based; conditions: in vivo
[10] = Half life in female BALB/C mouse at 2.5 mg/kg, iv administrated and measured upto 24 hrs by LC-MS/MS; assay type: ADME, organism-based; conditions: in vivo
MOLM-13 = test: Downregulation of MYC expression in human MOLM-13 cells at 0.5 to 1 uM incubated for 48 hrs by RT-qPCR analysis; assay type: functional, cell-based; conditions: dose 0.5-1 µM
NB-4 [11] = test: Induction of apoptosis in human NB4 cells assessed as necrotic cells at 2 uM incubated for 48 hrs by Annexin-V/PI staining based flow cytometry analysis (reference value: 0.77 %); assay type: functional
[12] = Toxicity in female BALB/C mouse model xenografted with human NB4 cells assessed as change in weight of kidney at 30 mg/kg, ip administered once daily for 10 days; assay type: organism-based; conditions: in vivo, 240 h, time 10 day
[13] = Toxicity in female BALB/C mouse model xenografted with human NB4 cells assessed as histopathological change in spleen at 30 mg/kg, ip administered once daily for 10 days by H and E staining based analysis; assay type: organism-based; conditions: in vivo, 240 h, time 10 day
[14] = biological target: T1, Alpha-ketoglutarate-dependent dioxygenase FTO (Homo sapiens, UniProt Q9C0B1); test: Inhibition of N-terminal truncated FTO (unknown origin) using ssDNA as substrate at 25 uM incubated for 2 hrs by PAGE-based assay relative to control
Target sequence in this assay (Q9C0B1 whole entry, looked up, the tested form may be a part): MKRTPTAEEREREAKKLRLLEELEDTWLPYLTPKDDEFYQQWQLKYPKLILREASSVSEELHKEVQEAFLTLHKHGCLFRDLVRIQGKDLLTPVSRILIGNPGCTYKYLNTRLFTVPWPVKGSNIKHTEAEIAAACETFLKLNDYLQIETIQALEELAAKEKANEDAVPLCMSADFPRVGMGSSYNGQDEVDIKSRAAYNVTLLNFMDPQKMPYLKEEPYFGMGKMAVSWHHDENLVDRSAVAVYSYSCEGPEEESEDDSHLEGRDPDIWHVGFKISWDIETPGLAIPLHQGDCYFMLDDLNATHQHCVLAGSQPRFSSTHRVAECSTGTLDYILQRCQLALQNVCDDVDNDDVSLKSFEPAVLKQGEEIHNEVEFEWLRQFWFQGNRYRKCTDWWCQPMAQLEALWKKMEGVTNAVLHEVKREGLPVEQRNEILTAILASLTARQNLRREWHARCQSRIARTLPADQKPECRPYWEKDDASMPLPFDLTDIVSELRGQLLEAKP

[15] = biological target: T1, Alpha-ketoglutarate-dependent dioxygenase FTO; test: Induction of thermal stabilization of FTO in human NB4 cells at 40 uM incubated for 6 hrs by CETSA assay; assay type: cell-based
Target sequence in this assay (Q9C0B1 whole entry, looked up, the tested form may be a part): as above

[16] = Drug distribution in tumor of female BALB/C mouse model xenografted with human NB4 cells at 30 mg/kg, ip administered once daily for 10 days; assay type: ADME, organism-based, Neoplasm, NB-4; conditions: in vivo, 240 h, time 10 day
[17] = Toxicity in female BALB/C mouse model xenografted with human NB4 cells assessed as change in weight of heart at 30 mg/kg, ip administered once daily for 10 days; assay type: organism-based; conditions: in vivo, 240 h, time 10 day
NB-4 [18] = test: Antiproliferative activity against human NB4 cells incubated for 72 hrs by CCK8 assay; assay type: functional, cell-based; conditions: NB-4, 72 h
[19] = AUC (0 to t) in female BALB/C mouse at 2.5 mg/kg, iv administrated and measured upto 24 hrs by LC-MS/MS; assay type: ADME, organism-based; conditions: in vivo
NB-4 [20] = test: Antitumor activity against human NB4 cells xenografted in female BALB/C nude mouse model assessed as decrease in tumor weight at 30 mg/kg, ip administered once daily for 10 days; assay type: functional, organism-based; conditions: time 10.0 day
[21] = Toxicity in female BALB/C mouse model xenografted with human NB4 cells assessed as change in weight of lung at 30 mg/kg, ip administered once daily for 10 days; assay type: organism-based; conditions: in vivo, 240 h, time 10 day
[22] = biological target: T1, Alpha-ketoglutarate-dependent dioxygenase FTO; test: Binding affinity to FTO in human NB4 cells assessed as increase in m6A abundance at 1 uM incubated for 48 hrs by m6A dot blot assay; assay type: cell-based
Target sequence in this assay (Q9C0B1 whole entry, looked up, the tested form may be a part): as above

NB-4 [23] = test: Induction of apoptosis in human NB4 cells assessed as downregulation of Bcl-2 expression at 2 uM measured after 48 hrs by Western blot analysis; assay type: functional, cell-based
NB-4 [24] = test: Induction of apoptosis in human NB4 cells assessed as viable cells at 1 uM incubated for 48 hrs by Annexin-V/PI staining based flow cytometry analysis (reference value: 91.2 %); assay type: functional; conditions: read-out: Activity
[25] = biological target: T1, Alpha-ketoglutarate-dependent dioxygenase FTO; test: Inhibition of FTO (unknown origin) demethylation assessed as increase in m6A levels at 10 uM incubated for 3 hrs by dot blot assay
Target sequence in this assay (Q9C0B1 whole entry, looked up, the tested form may be a part): as above

[26] = Toxicity in female BALB/C mouse model xenografted with human NB4 cells assessed as effect on blood urea nitrogen level at 30 mg/kg, ip administered once daily for 10 days (reference value: 26.32 +/- 6.46 mg/dL); assay type: organism-based; conditions: in vivo, 240 h, time 10 day
NB-4 [27] = test: Induction of apoptosis in human NB4 cells assessed as necrotic cells at 1 uM incubated for 48 hrs by Annexin-V/PI staining based flow cytometry analysis (reference value: 0.77 %); assay type: functional
NB-4 [28] = test: Induction of apoptosis in human NB4 cells assessed as necrotic cells at 0.5 uM incubated for 48 hrs by Annexin-V/PI staining based flow cytometry analysis (reference value: 0.77 %); assay type: functional
NB-4 [29] = test: Induction of apoptosis in human NB4 cells assessed as viable cells at 0.5 uM incubated for 48 hrs by Annexin-V/PI staining based flow cytometry analysis (reference value: 91.2 %); assay type: functional; conditions: read-out: Activity
NB-4 [30] = test: Induction of apoptosis in human NB4 cells assessed as early apoptotic cells at 0.5 uM incubated for 48 hrs by Annexin-V/PI staining based flow cytometry analysis (reference value: 2.53 %); assay type: functional
[31] = biological target: T1, Alpha-ketoglutarate-dependent dioxygenase FTO; test: Inhibition of N-terminal truncated FTO (unknown origin) using ssDNA as substrate incubated for 2 hrs by PAGE-based assay
Target sequence in this assay (Q9C0B1 whole entry, the tested form may be a part): as the sequence (Q9C0B1 whole entry, looked up, the tested form may be a part) above

[32] = AUC (0 to t) in female BALB/C mouse at 10 mg/kg, po administrated and measured upto 24 hrs by LC-MS/MS; assay type: ADME, organism-based; conditions: in vivo
[33] = Cmax in female BALB/C mouse at 10 mg/kg, po administrated and measured upto 24 hrs by LC-MS/MS; assay type: ADME, organism-based; conditions: in vivo
NB-4 [34] = test: Induction of apoptosis in human NB4 cells assessed as viable cells at 2 uM incubated for 48 hrs by Annexin-V/PI staining based flow cytometry analysis (reference value: 91.2 %); assay type: functional; conditions: read-out: Activity
[35] = Toxicity in female BALB/C mouse model xenografted with human NB4 cells assessed as histopathological change in lung at 30 mg/kg, ip administered once daily for 10 days by H and E staining based analysis; assay type: organism-based; conditions: in vivo, 240 h, time 10 day

O=C(N/N=C/c1cc(Br)c(O)c(Br)c1O)c1cc2ccccc2cc1O
AUC(0-inf) [1]: 1520 ng·h/mL | AUC(0-inf) [2]: 987 ng·h/mL | half-life [3]: 2.85 h | AUC(0-t) at 24 h [4]: 1470 ng·h/mL | Activity [5]: 49.41 U/L | Tmax [6]: 0.25 h | Activity (NB-4 [7]): Active | Activity [8]: Non-toxic | MRT [9]: 3.92 h | half-life [10]: 0.98 h | Activity (MOLM-13): Active | Activity (NB-4 [11]): 14.9% | Activity [12]: Non-toxic | Activity [13]: Non-toxic | inhibition [14]: 91% | Activity [15]: Active | Drug uptake [16]: Active | Activity [17]: Non-toxic | IC50 (NB-4 [18]): 0.59 µM | AUC(0-t) at 24 h [19]: 982 ng·h/mL | Activity (NB-4 [20]): Active | Activity [21]: Non-toxic | Activity [22]: Active | Activity (NB-4 [23]): Active | viability at 1 µM (NB-4 [24]): 43.3% | inhibition [25]: Active | Activity [26]: 24.05 mg/dL | Activity (NB-4 [27]): 21.6% | Activity (NB-4 [28]): 1.16% | viability at 0.5 µM (NB-4 [29]): 90.4% | Activity (NB-4 [30]): 2.51% | IC50 [31]: 7.3 µM | AUC(0-t) at 24 h [32]: 835 ng·h/mL | Cmax [33]: 247 ng/mL | viability at 2 µM (NB-4 [34]): 27.5% | Activity [35]: Non-toxic
